From US10239916B2, “Controlled modulation of amino acid side chain length of peptide antigens” (Board of Regents, The University of Texas System, priority 2002, dated 2019)
Each block holds one substance with its values, some of them ahead of it. Where no end group is shown, it is not given here. [ ]: non-standard residue; d: D form. Nle = CCCC[C@H](N)C(=O)O; Nva = CCC[C@H](N)C(=O)O

Columns and labels:
CD8+ cells [1] = experiment: Expansion and survival of peptide-stimulated T cells (numbers of live / CD8+ cells); type: cell-based, human; settings: for number / survival of stimulated cells at restimulation compared with E75: donor 2; for percentage of live cells: donor 2, 30 days after priming, primed and restimulated
T2 cells pulsed with E75 [2] = experiment: CTL assay: lysis of peptide-pulsed T2 cells by peptide-induced CTL; type: cell-based, human; settings: for recognition of E75 by variant-induced CTL compared with E75-induced CTL: donor 1, priming; for E75-specific lytic activity of variant-induced CTL compared with E75-CTL: donor 2
PBMC [3] = experiment: IFN-γ induction in PBMC/T cells stimulated with peptide-pulsed autologous DC (ELISA); type: cell-based, human; set-up: IFN-γ induction at priming compared with E75: dose or concentration left out as unconfirmed; settings: for IFN-γ induction at priming compared with E75: two weak E75-responder donors, […] μM on autologous DC; for IFN-γ at priming compared with E75: donor 1; for increase of IFN-γ at priming over E75: donor 2
HLA-A2 = HLA-A2 (Homo sapiens, UniProt P04439, D140Y/D185E/D98H/E176V/E277Q/G131W/G231S/I119V/I121R/I166T/I218V/N151K/N90K/P208A/P217A/Q86G/Q94H/R138H/R169H); experiment: Molecular modeling of peptide:HLA-A2 complex, accessible surface area (GETAREA 1.1)
SKOV3.A2 cells = experiment: Cold-target inhibition of lysis of SKOV3.A2 by T2-E75; type: cell-based, human
PBMC [4] = experiment: IL-2 induction in PBMC/T cells stimulated with peptide-pulsed autologous DC (ELISA); type: cell-based, human; settings: Donor 3
Bcl-2, Bcl-xL, Bad = type: cell-based, human; settings: for up-regulation of Bcl-2 and Bcl-XL: F42SK-CTL restimulated with agonists pulsed on T2
CD8+ cells [5] = experiment: Two color FACS (CD62L, CFSE) of peptide-stimulated CD8+ cells; type: cell-based, human; settings: Donor 1 CD8+ cells, 20 additional days in IL-2
SKOV3.A2 = experiment: IFN-γ secretion of S5K-CTL at encounter with ovarian tumor SKOV3.A2; type: cell-based, human; settings: SKOV3.A2 stimulator, IL-12 as costimulator
Description: (§1) FIGS. 11A-11C. […] FIGS. 11A and 11B, Cold target inhibition of cytolysis of OVA-16 (HLA-A2, HER-2^high). […] E:T ratio was 10:1; the ratio of cold to hot targets was 1:1. C, IFN γ induction. IL-12 was used at 3 IU (300 pg/ml); the responders to SKOV3. A2 stimulator ratio was 40:1.
(§2) Similar inhibition (38%) was observed against SKOV3.A2 in a 16-h assay. […] The levels of inhibition of lysis indicative of specific recognition were similar to those levels observed with donor 2, E75-CTL, and S5K-CTL (FIG. 8E). S5K-CTL was also tested for the ability to secrete IFN-γ at an encounter with the ovarian tumor SKOV3.A2 and its HLA-A2^− counterpart SKOV3. This was necessary because the tumor and responding lymphocytes shared HLA-A3.

E75+TCR cells = E75+TCR cells determined with E75 dimers (dE75), flow cytometry; type: cell-based, human
[6] = test system: ovarian tumor OVA-16 (HLA-A2+, HER-2high); experiment: Cold-target inhibition of cytolysis of OVA-16 by T2-E75; type: cell-based, human; settings: S5K-CTL
Description: as §1, §2

T2 cells pulsed with E75 [7] = settings: cited from earlier work

Substance: A7.2: E75 with Ala7 replaced by norvaline (NVal), 2 CH2 groups extending linearly from Ala7 (KIFGSL[Nva]FL)
numbers of CD8+ cells, schedule 2×A7.3 to 2×A7.2 relative to 4×A7.3 (CD8+ cells [1]): 4 times
number of E75-specific LU, schedule 2×A7.3 to 2×A7.2 relative to 4×A7.3 (T2 cells pulsed with E75 [2]): two times higher
increase in number of E75-lytic specific effectors, 2×A7.3 to 2×A7.2 vs 4×A7.3 (T2 cells pulsed with E75 [2]; 4×2): 8 fold
E75 level recognized by induced CTL (T2 cells pulsed with E75 [2]; A7.3-induced, A7.3-restimulated CTL after additional stimulation with A7.2): 50 nM
sensitivity for E75 relative to E75-induced CTL (T2 cells pulsed with E75 [2]; CTL at 50 nM level): at least 100 fold
lytic activity induced in rested A7.3 CTL by restimulation (T2 cells pulsed with E75 [2]; tested 30 h later, no IL-2): somewhat higher levels of lytic activity
IFN-γ induction at priming (PBMC [3]; Donor 3): stronger inducer of IFN-γ
IFN-γ response to E75 of primed T cells relative to E75-primed T cells (PBMC [3]; E75 at 2 μM, within 16 h, Donor 1): 3 fold
IFN-γ induction (PBMC [3]; cells from donors and ovarian cancer patients which did not respond to E75): higher levels of IFN-γ than A7.3 and G4.3
IFN-γ induction at priming compared with E75 (PBMC [3]): higher levels of IFN-γ than E75

change in the surface between E75 and A7.3 (HLA-A2): 0.036%
Substance: K1FGSL (NLeu)FL (KIFGSL[Nle]FL) [A7.3, 10]
inhibition of SKOV3.A2 lysis by T2-E75 (SKOV3.A2 cells; A7.3-induced CTL-TIL, 5 h CTL assay): 60%
inhibition of lysis of SKOV3-A2 by T2-E75 (SKOV3.A2 cells; CTL-3 primed with E75 and restimulated, T2-E75 at 100 nM): 27%
E75 level recognized by induced CTL (T2 cells pulsed with E75 [2]; A7.3-induced CTL-TIL restimulated with A7.3): 200 nM
exogenous pulsed E75 concentration recognized by induced CTL (T2 cells pulsed with E75 [2]; Donor 4 (CTL-4), three stimulations): 25 nM
IL-2 induction at priming (PBMC [4]): stronger inducer of IL-2 than A7.2
IFN-γ induction at priming compared with E75 (PBMC [3]): higher levels of IFN-γ than E75
up-regulation of Bcl-2 and Bcl-XL (Bcl-2, Bcl-xL, Bad): significantly stronger stimulators for up-regulation of Bcl-2 and Bcl-XL than F42
Bcl-xL to Bad ratio (Bcl-2, Bcl-xL, Bad; S5K-CTL CD8+ cells stimulated 96 h, 25 μg/ml): even higher Bcl-xL to Bad ratios than E75

Substance: KIFGALAFL [S5A]
number / survival of stimulated cells at restimulation compared with E75 (CD8+ cells [1]): dropped faster
percentage of live cells (CD8+ cells [1]): decrease in live cells
recognition of E75 by variant-induced CTL compared with E75-induced CTL (T2 cells pulsed with E75 [2]): recognized E75 better than CTL induced by E75
E75-specific lytic activity of variant-induced CTL compared with E75-CTL (T2 cells pulsed with E75 [2]): significantly higher
IFN-γ at priming compared with E75 (PBMC [3]): higher levels of IFN-γ
increase of IFN-γ at priming over E75 (PBMC [3]): 100%

Substance: KIFGGLAFL [S5G]
number / survival of stimulated cells at restimulation compared with E75 (CD8+ cells [1]): dropped faster
percentage of live cells (CD8+ cells [1]): decrease in live cells
recognition of E75 by variant-induced CTL compared with E75-induced CTL (T2 cells pulsed with E75 [2]): recognized E75 better than CTL induced by E75
IFN-γ at priming compared with E75 (PBMC [3]): higher levels of IFN-γ
increase of IFN-γ at priming over E75 (PBMC [3]): 64%
CD62L+ cells in the resulting population (CD8+ cells [5]): 4.8%

Substance: KIFGKLAFL [S5K]
increase in number of CD8+ cells of S5K-CTL (CD8+ cells [1]; 50 μg/ml peptide + anti-Fas, 4 days): 27%
numbers of live cells recovered after stimulation and expansion in IL-2 (CD8+ cells [1]; S5K-CTL stimulated with peptide-pulsed T2): 2.9 ×10^6 cells
increase in number of CD8+ cells of S5K-CTL (CD8+ cells [1]; […] μg/ml peptide + anti-Fas, 4 days): 0.93%
number / survival of stimulated cells at restimulation compared with E75 (CD8+ cells [1]): survived longer than E75-stimulated cells
survival of responders (CD8+ cells [1]; donor 3, after third stimulation): better survival in responders than E75
increase in number of CD8+ cells of S5K-CTL (CD8+ cells [1]; in the absence of CH11): no increase in cell number
IFN-γ secretion by peptide-induced CTL (SKOV3.A2): high levels of IFN-γ within 20 h
inhibition of lysis of SKOV3.A2 by T2-E75 (SKOV3.A2 cells; S5K-CTL, 16-h assay): 38%
inhibition of tumor lysis by T2-E75 compared with E75-CTL (SKOV3.A2 cells; donor 2, E:T 30:1, cold:hot 10:1): inhibited less by T2-E75 than lysis by E75-CTL
Bcl-2 levels in small E75+TCR lymphocytes (E75+TCR cells; S5K-CTL): higher in the small lymphocytes
MCF of E75+TCR expression in small lymphocytes (E75+TCR cells; S5K-CTL stimulated 1 wk): 180
lysis of T2-E75 by peptide-induced CTL (T2 cells pulsed with E75 [2]; E75 10 μg/ml, E:T ratio 40:1): 25.4 % lysis
recognition of E75 by variant-induced CTL compared with E75-induced CTL (T2 cells pulsed with E75 [2]): CTL induced by priming with E75 recognized E75 better
E75-specific lytic activity of variant-induced CTL compared with E75-CTL (T2 cells pulsed with E75 [2]): lower than the recognition by E75-CTL
recognition (lysis) of peptide-pulsed T2 by E75-CTL (T2 cells pulsed with E75 [2]; donor 3 E75-CTL, peptide 50 μg/ml): 32%
inhibition of lysis of OVA-16 by T2-E75 ([6]; 8-h CTL assay): 21%
inhibition of lysis of OVA-16 by T2-E75 ([6]; 16-h assay): 45%
exogenous pulsed E75 recognized by F42SK-CTL (T2 cells pulsed with E75 [7]): 5000 ng/mL
IFN-γ and IL-2 response of S5K-CTL compared with E75 (PBMC [3]): higher levels of IFN-γ, but lower levels of IL-2
IFN-γ at priming compared with E75 (PBMC [3]): higher levels of IFN-γ
increase of IFN-γ at priming over E75 (PBMC [3]): 36%
IFN-γ induction compared with E75 (PBMC [3]; healthy donor responding weakly to E75): higher IFN-γ induction
up-regulation of Bcl-2 and Bcl-XL (Bcl-2, Bcl-xL, Bad): slightly stronger up-regulator of Bcl-2 than E75
up-regulation of Bcl-2 (Bcl-2, Bcl-xL, Bad; S5K-CTL): slightly stronger up-regulator of Bcl-2 than E75

Substance: KIFGSLAYL [F8Y]
recognition of E75 by variant-induced CTL compared with E75-induced CTL (T2 cells pulsed with E75 [2]): CTL induced by priming with E75 recognized E75 better
IFN-γ at priming compared with E75 (PBMC [3]): lower levels of IFN-γ

Substance: KIFSGSLAKL [F8K]
recognition of E75 by variant-induced CTL compared with E75-induced CTL (T2 cells pulsed with E75 [2]): CTL induced by priming with E75 recognized E75 better
IFN-γ at priming compared with E75 (PBMC [3]): lower levels of IFN-γ
